Laboratory results from patent US9663486B2, “Selectively substituted quinoline compounds” (EISAI R&D MANAGEMENT CO., LTD., priority 2013, dated 2017).
“Also recorded” adds a separate entry of the source.

Key:
[1] = system: auto-antibody titers (anti-dsDNA, anti-histone, anti-Sm/RNP, anti-RiboP); assay: DBA/1 pristane lupus model, auto-antibody titers by ELISA; type: in vivo, mouse; conditions: DBA/1 mice, once-a-day oral dosing
Method: FIG. 1A through FIG. 1D show results of treatment with ER-888840 (5-((3R,5S)-3-amino-5-methylpiperidin-1-yl)quinoline-8-carbonitrile) in the DBA/1 pristane model. Figure Legend: Female DBA/1 mice at 10 weeks of age were given an intraperitoneal injection of 0.5 ml pristane or PBS. At 18 weeks of age animals were bled for pre-dosing baseline auto-antibody titers. Once-a-day oral dosing with Vehicle (Veh; 0.5% methyl-cellulose) or 11 mg/kg, 33 mg/kg, or 100 mg/kg of ER-888840 was begun at 18 weeks of age, 8 weeks after pristane injection and continued for 12 weeks of treatment. At the end of the experiment plasma samples were taken and anti-dsDNA and anti-histone (FIG. 1A) and anti-Sm/RNP and anti-RiboP (FIG. 1B) titers were determined by ELISA. (FIG. 1C) The expression of IFN-regulated genes in whole blood was measured by a qPCR panel after 8 weeks of treatment. […] (FIG. 1D) The interferon scores of individual mice were calculated (see Pharmacology Materials and Methods section for details regarding IFN score calculation) and groups compared using the Mann-Whitney t test.
FIG. 2A through 2E show results of treatment with ER-888840 in the DBA/1 pristane model. […] At the end of the experiment plasma was taken and anti-dsDNA (FIG. 2A), anti-RiboP (FIG. 2B), anti-histone (FIG. 2C) and anti-Sm/RNP (FIG. 2D) titers were determined by ELISA. […]

[2] = target: Human TLR4 (Homo sapiens, UniProt O00206); assay: HEK-293 NFkB-luciferase reporter assay, LPS stimulation; type: cell-based; set-up: stably and individually express human TLR4, TLR7 or TLR9 full-length ORF cDNAs; expressed in transfected cells; host or cells: HEK-293 (ATCC) with ELAM-1 NF-kappaB luciferase reporter; conditions: ligand LPS
From the text: HEK-293 cells (ATCC) were engineered to stably express a NF-kappaB transcription factor inducible E-selectin (ELAM-1) luciferase reporter derived from the plasmid pGL3 (Promega) containing base pairs −2241 bp to −254 bp from the promoter of the human E-selectin gene (Accession No. NM_000450). These cells were then subsequently engineered to stably and individually express human TLR4, TLR7 or TLR9 full-length ORF cDNAs. Human TLR4 cDNA (Accession No. NM_138554) was cloned into pcDNA 3.0 expression vector (Invitrogen). TLR4 transfected cells were also engineered to express human MD-2 co-receptor [MD-2 cDNA (Accession No. NM_015364) was cloned into the pEF-BOS vector] and were supplemented with 10 nM soluble CD14 (R&D Systems) in the media to optimize LPS responsiveness. Human TLR9 cDNA (Accession No. NM_017442) was cloned into the pBluescript II KS vector (Agilent). Human TLR7 cDNA (Accession No. NM_016562) was obtained from OriGene. HEK-293 cells stably expressing human TLR8 (Accession No. NM_138636) or mouse TLR7 (Accession No. NM_133211) were purchased from InvivoGen and were then stably transfected with pNiFty2(NF-kappaB)-luciferase reporter plasmid (InvivoGen). Each cell type was plated in Dulbecco's modified Eagle's medium (DMEM) containing 10% fetal bovine serum (FBS) at a density of 2.22×10^5 cells/ml into a 384-well plate and incubated for 2 days at 37° C., 5% CO2. […]

Sequence of Human TLR4 (O00206 24-839): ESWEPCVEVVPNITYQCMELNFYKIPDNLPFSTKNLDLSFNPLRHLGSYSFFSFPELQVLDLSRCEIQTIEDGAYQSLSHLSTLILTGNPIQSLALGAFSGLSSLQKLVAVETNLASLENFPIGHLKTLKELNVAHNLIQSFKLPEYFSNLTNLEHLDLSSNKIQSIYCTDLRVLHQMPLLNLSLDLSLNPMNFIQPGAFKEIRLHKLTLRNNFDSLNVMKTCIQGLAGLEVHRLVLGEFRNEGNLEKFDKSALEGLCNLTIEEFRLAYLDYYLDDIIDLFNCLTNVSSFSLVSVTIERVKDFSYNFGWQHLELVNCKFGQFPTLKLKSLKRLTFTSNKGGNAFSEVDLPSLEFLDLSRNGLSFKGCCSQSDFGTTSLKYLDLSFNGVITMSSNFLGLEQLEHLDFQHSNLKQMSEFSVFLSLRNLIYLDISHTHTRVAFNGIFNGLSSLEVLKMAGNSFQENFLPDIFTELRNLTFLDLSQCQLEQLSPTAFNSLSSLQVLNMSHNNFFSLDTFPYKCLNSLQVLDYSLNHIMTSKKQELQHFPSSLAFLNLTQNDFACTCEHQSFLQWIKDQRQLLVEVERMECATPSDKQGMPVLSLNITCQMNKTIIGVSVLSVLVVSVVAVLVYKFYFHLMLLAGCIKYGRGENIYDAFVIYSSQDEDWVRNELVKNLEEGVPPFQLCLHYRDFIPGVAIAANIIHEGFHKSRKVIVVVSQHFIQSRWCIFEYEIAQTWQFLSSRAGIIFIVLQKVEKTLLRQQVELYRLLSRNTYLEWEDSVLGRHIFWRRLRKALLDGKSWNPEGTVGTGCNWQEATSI
Sequence of Human TLR4 (Q9Y6Y9 19-160 partner): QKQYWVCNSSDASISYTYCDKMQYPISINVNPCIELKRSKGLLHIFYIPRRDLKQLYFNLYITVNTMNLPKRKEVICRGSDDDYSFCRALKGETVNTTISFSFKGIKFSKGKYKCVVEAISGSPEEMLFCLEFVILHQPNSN

C[C@H]1C[C@@H](N)CN(c2ccc(C#N)c3ncccc23)C1 [ER-888840, 5-((3R,5S)-3-amino-5-methylpiperidin-1-yl)quinoline-8-carbonitrile]
effect on auto-antibody specificities [1]: suppressed multiple auto-antibody specificities; also recorded: limited the production of several autoantibody specificities
IC50 [2]: > 10 µM
